What was measured:
[1] = Clearance in rat at 4 umol/kg, iv; format: ADME, organism-based; details: in vivo
[2] = Clearance in human hepatocytes assessed per 10^6 cells; format: ADME, cell-based, Hepatocyte; details: read-out: CLH
[3] = Lipophilicity, log D of the compound; format: physicochemical; details: octanol/water
[4] = Oral bioavailability in CD1 mouse at 20 umol/kg; format: ADME, organism-based; details: in vivo
[5] = Oral bioavailability in rat; details: in vivo
[6] = Clearance in CD1 mouse at 10 umol/kg, iv; format: ADME, organism-based; details: in vivo
[7] = Clearance in rat at 1 umol/kg, iv; format: ADME, organism-based; details: in vivo
MDR1 [8] = experiment: Apparent permeability from basolateral to apical side of MDCK2 cells expressing human MDR1 at 10 uM; format: ADME, cell-based, Canis lupus familiaris, MDCK-II; details: dog, MDCK-MDR1
[9] = Oral bioavailability in rat at 6 umol/kg; format: ADME, organism-based; details: in vivo
MDR1 [10] = experiment: Apparent permeability from apical to basolateral side of MDCK2 cells expressing human MDR1 at 10 uM; format: ADME, cell-based, Canis lupus familiaris, MDCK-II; details: dog, MDCK-MDR1

SMILES: CNC(=O)c1cccc(-c2ccc3c(N4CCOC[C@@H]4C)nc(N4CCOC[C@@H]4C)nc3n2)c1 [VISTUSERTIB]
- clearance [1]: 12.6 mL/min/kg
- hepatocyte CLint [2]: < 4.2 µL/min/1e6 cells
- logD [3]: 3.16
- bioavailability [4]: > 100%
- bioavailability [5]: 40%
- clearance [6]: 10.4 mL/min/kg

SMILES: COc1ccc(-c2ccc3c(N4CCOCC4)nc(N4C[C@@H](C)O[C@@H](C)C4)nc3n2)cc1CO [Ku-0063794]
- clearance [7]: 35.8 mL/min/kg
- Papp B→A at 10 µM (MDR1 [8]): 15 ×10⁻⁶ cm/s
- bioavailability [4]: 61%
- bioavailability [9]: 33%
- Papp A→B at 10 µM (MDR1 [10]): 2.6 ×10⁻⁶ cm/s
- clearance [6]: 3.1 mL/min/kg

SMILES: CNC(=O)c1cc(-c2ccc3c(N4CCOC[C@@H]4C)nc(N4CCOC[C@@H]4C)nc3n2)ccc1OC(F)F
- hepatocyte CLint [2]: 14.9 µL/min/1e6 cells

SMILES: COc1ccc(-c2ccc3c(N4CCOC[C@@H]4C)nc(N4CCOC[C@@H]4C)nc3n2)cc1C(C)O (some centres undefined)
- hepatocyte CLint [2]: 37.8 µL/min/1e6 cells

SMILES: C[C@@H]1CN(c2nc(N3CCOC[C@@H]3C)c3ncc(-c4ccccc4)nc3n2)C[C@H](C)O1
- logD [3]: > 4

SMILES: COc1ccc(-c2ccc3c(N4CCOC[C@@H]4C)nc(N4CCOC[C@@H]4C)nc3n2)cc1CO [AZD-8055]
- clearance [1]: 36.6 mL/min/kg
- hepatocyte CLint [2]: 36.4 µL/min/1e6 cells
- logD [3]: 3.23
- bioavailability [4]: 81%
- bioavailability [5]: 12%
- clearance [6]: 42.8 mL/min/kg

SMILES: COc1ccc(-c2ccc3c(N4CCOC[C@@H]4C)nc(N4CCOC[C@@H]4C)nc3n2)cc1C(=O)N(C)C
- hepatocyte CLint [2]: 4.3 µL/min/1e6 cells

SMILES: C[C@H]1COCCN1c1nc(N2CCOC[C@@H]2C)c2ccc(-c3cccc(C(=O)NCCO)c3)nc2n1
- hepatocyte CLint [2]: < 5.4 µL/min/1e6 cells

SMILES: CNC(=O)c1cc(-c2ccc3c(N4CCOC[C@@H]4C)nc(N4CCOC[C@@H]4C)nc3n2)ccc1OC
- hepatocyte CLint [2]: 14.3 µL/min/1e6 cells

SMILES: COc1ccc(-c2ccc3c(N4CCOCC4)nc(N4C[C@@H](C)O[C@@H](C)C4)nc3n2)cc1CNCCO
- Papp B→A at 10 µM (MDR1 [8]): 16.6 ×10⁻⁶ cm/s
- Papp A→B at 10 µM (MDR1 [10]): 45.3 ×10⁻⁶ cm/s

SMILES: C[C@@H]1CN(c2nc(N3CCOC[C@@H]3C)c3ccc(-c4ccccc4)nc3n2)C[C@H](C)O1
- logD [3]: 3.75

SMILES: C[C@H]1COCCN1c1nc(N2CCOC[C@@H]2C)c2ccc(-c3ccc4nc[nH]c(=O)c4c3)nc2n1
- hepatocyte CLint [2]: 176 µL/min/1e6 cells

SMILES: COc1ccc(-c2ccc3c(N4CCOC[C@@H]4C)nc(N4CCOC[C@@H]4C)nc3n2)cc1C(N)=O
- hepatocyte CLint [2]: 33.2 µL/min/1e6 cells

From ChEMBL document CHEMBL2331448, “Optimization of potent and selective dual mTORC1 and mTORC2 inhibitors: the discovery of AZD8055 and AZD2014” (Bioorg Med Chem Lett, 2013)
